According to BindingDB's records for doi:10.7270/Q2KK9971 (Nmmlsc, 2009):

What follows are compounds tested against T1, GTPase KRas [1-37] (Homo sapiens, UniProt G3V5T7) (assay: inhibition of fluorescent GTP binding to wild-type Ras – biochemical, pyrazoline analogs, multiplex bead flow cytometry, SAR follow-up (AID 2047)). Conditions: not given.
T1 construct: 1-37
T1 sequence (G3V5T7 whole entry): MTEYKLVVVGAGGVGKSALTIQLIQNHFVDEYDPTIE

Q: COc1ccccc1C1CC(c2ccccc2)=NN1c1ccc(S(N)(=O)=O)cc1 (configuration not stated) [4-[3-(2-methoxyphenyl)-5-phenyl-3,4-dihydropyrazol-2-yl]benzenesulfonamide] was tested. Which EC50 did it give?
A: > 30 µM

Q: For COc1ccc(C2CC(c3ccccc3OC)=NN2c2ccc(S(N)(=O)=O)cc2)cc1 (configuration not stated), which EC50 is on record?
A: > 30 µM

Q: COc1ccc(C2=NN(c3ccc(S(N)(=O)=O)cc3)C(c3ccc(OC)cc3)C2)cc1 (configuration not stated) [4-[3,5-bis(4-methoxyphenyl)-3,4-dihydropyrazol-2-yl]benzenesulfonamide] was tested. Which EC50 did it give?
A: > 30 µM

Q: With NS(=O)(=O)c1ccc(N2N=C(c3ccccc3)CC2c2cccc(Cl)c2)cc1 (configuration not stated) [UNM-0000306161] as the compound, how does the EC50 read?
A: > 30 µM

Q: COc1cccc(C2CC(c3ccccc3)=NN2c2ccc(S(N)(=O)=O)cc2)c1 (configuration not stated) [4-[3-(3-methoxyphenyl)-5-phenyl-3,4-dihydropyrazol-2-yl]benzenesulfonamide] was tested. Which EC50 did it give?
A: > 30 µM

Q: COc1ccc(C2CC(C3CCCCC3)=NN2c2ccc(S(N)(=O)=O)cc2)cc1 (configuration not stated) [4-[5-cyclohexyl-3-(4-methoxyphenyl)-3,4-dihydropyrazol-2-yl]benzenesulfonamide] was tested. Which EC50 did it give?
A: > 30 µM

Q: With COc1ccc(C2=NN(c3cccc(F)c3)C(c3ccc(Cl)cc3)C2)cc1 (configuration not stated) [3-(4-chlorophenyl)-2-(3-fluorophenyl)-5-(4-methoxyphenyl)-3,4-dihydropyrazole] as the compound, how does the EC50 read?
A: > 30 µM

Q: Which EC50 does the source give for O=[N+]([O-])c1cccc(C2C[C-](c3ccccc3)N=[N+]2c2ccccc2)c1 (configuration not stated) [UNM-0000305857] here?
A: > 30 µM

Q: With COc1ccc(C2=NN(c3ccc(Cl)cc3)C(c3ccccc3F)C2)cc1 (configuration not stated) [UNM-0000305863] as the compound, how does the EC50 read?
A: > 30 µM

Q: How did the EC50 turn out when NS(=O)(=O)c1ccc(N2N=C(c3ccccc3)CC2c2ccccc2Br)cc1 (configuration not stated) [4-[3-(2-bromophenyl)-5-phenyl-3,4-dihydropyrazol-2-yl]benzenesulfonamide] was run?
A: > 30 µM

Q: Cc1ccc(-c2cc(C(F)(F)F)nn2-c2ccc(S(N)(=O)=O)cc2)cc1 [Celecoxib] was tested. Which EC50 did it give?
A: > 30 µM

Q: Which EC50 does the source give for COc1ccc(C2CC(c3ccccc3Br)=NN2c2ccc(S(N)(=O)=O)cc2)cc1 (configuration not stated) [UNM-0000306112] here?
A: > 30 µM

Q: How did the EC50 turn out when COc1ccc(C2CC(c3cccc(OC)c3)=NN2c2ccc(S(N)(=O)=O)cc2)cc1 (configuration not stated) [4-[5-(3-methoxyphenyl)-3-(4-methoxyphenyl)-3,4-dihydropyrazol-2-yl]benzenesulfonamide] was run?
A: > 30 µM

Q: NS(=O)(=O)c1ccc(N2N=C(c3ccccc3)CC2c2ccc(Br)cc2)cc1 (configuration not stated) [UNM-0000306160] was tested. Which EC50 did it give?
A: > 30 µM

Q: For COc1ccc(C2CC(c3ccccc3)=NN2c2ccc(S(N)(=O)=O)cc2)cc1OC (configuration not stated) [UNM-0000305823], which EC50 is on record?
A: > 30 µM

Q: For CN(C)c1ccc(C2CC(c3ccc(F)cc3)=NN2c2ccccc2)cc1 (configuration not stated) [UNM-0000305866], which EC50 is on record?
A: > 30 µM

Q: COc1ccc(C2CC(c3cccc(Cl)c3)=NN2c2ccc(S(N)(=O)=O)cc2)cc1 (configuration not stated) [UNM-0000306134] was tested. Which EC50 did it give?
A: > 30 µM

Q: How did the EC50 turn out when O=[N+]([O-])c1cccc(C2C[C-](c3ccc(F)cc3)N=[N+]2c2ccccc2)c1 (configuration not stated) [5-(4-fluorophenyl)-3-(3-nitrophenyl)-2-phenyl-3,4-dihydropyrazole] was run?
A: > 30 µM

Q: O=[N+]([O-])c1ccc([N+]2=N[C-](c3ccccc3)CC2c2ccccc2)cc1 (configuration not stated) was tested. Which EC50 did it give?
A: > 30 µM

Q: Which EC50 does the source give for COc1ccc(C2CC(c3cccc(N(C)C)c3)=NN2c2ccc(S(N)(=O)=O)cc2)cc1 (configuration not stated) here?
A: > 30 µM

Q: For NS(=O)(=O)c1ccc(N2N=C(c3ccc(Br)cc3)CC2c2ccc(F)cc2)cc1 (configuration not stated) [4-[5-(4-bromophenyl)-3-(4-fluorophenyl)-3,4-dihydropyrazol-2-yl]benzenesulfonamide], which EC50 is on record?
A: > 30 µM

Q: With COc1ccc(C2CC(c3ccccc3C(F)(F)F)=NN2c2ccc(S(N)(=O)=O)cc2)cc1 (configuration not stated) [KUC103474N] as the compound, how does the EC50 read?
A: > 30 µM

Q: How did the EC50 turn out when COc1ccc(C2=NN(c3ccccc3)C(c3ccc(OC)c(OC)c3C(=O)O)C2)cc1 (configuration not stated) [UNM-0000305848] was run?
A: > 30 µM

Q: For NS(=O)(=O)c1ccc(N2N=C(c3ccccc3)CC2c2ccccc2Cl)cc1 (configuration not stated) [KUC103446N], which EC50 is on record?
A: > 30 µM

Q: COc1ccc(C2CC(c3cccc(C)c3)=NN2c2ccc(S(N)(=O)=O)cc2)cc1 (configuration not stated) [UNM-0000306153] was tested. Which EC50 did it give?
A: > 30 µM

Q: Which EC50 does the source give for COc1ccc(C2CC(c3ccc(Cl)cc3)=NN2c2ccc(S(N)(=O)=O)cc2)cc1 (configuration not stated) here?
A: > 30 µM

Q: How did the EC50 turn out when COc1ccccc1C1CC(c2ccccc2)=NN1c1ccccc1 (configuration not stated) was run?
A: > 30 µM

Q: Which EC50 does the source give for FC(F)(F)c1cccc(N2N=C(c3ccc(Cl)cc3)CC2c2ccccc2Cl)c1 (configuration not stated) [UNM-0000305859] here?
A: > 30 µM

Q: For COc1ccc(C2CC(c3ccccc3Cl)=NN2c2ccc(S(N)(=O)=O)cc2)cc1 (configuration not stated) [4-[5-(2-chlorophenyl)-3-(4-methoxyphenyl)-3,4-dihydropyrazol-2-yl]benzenesulfonamide], which EC50 is on record?
A: > 30 µM

Q: With Cc1cccc(C2CC(c3ccccc3)=NN2c2ccc(S(N)(=O)=O)cc2)c1 (configuration not stated) as the compound, how does the EC50 read?
A: > 30 µM

Q: With NS(=O)(=O)c1ccc(N2N=C(c3ccccc3)CC2c2cccc(Br)c2)cc1 (configuration not stated) [UNM-0000306147] as the compound, how does the EC50 read?
A: > 30 µM

Q: Which EC50 does the source give for COc1ccc(C2CC(c3cccnc3)=NN2c2ccc(S(N)(=O)=O)cc2)cc1 (configuration not stated) here?
A: > 30 µM

Q: How did the EC50 turn out when COc1ccc(C2CC(c3ccc(C)cc3)=NN2c2ccc(S(N)(=O)=O)cc2)cc1 (configuration not stated) was run?
A: > 30 µM

Q: For COc1ccc(C2CC(C(C)(C)C)=NN2c2ccc(S(N)(=O)=O)cc2)cc1 (configuration not stated) [KUC103450N], which EC50 is on record?
A: > 30 µM

Q: Which EC50 does the source give for COc1ccc(C2CC(c3ccc(F)cc3)=NN2c2cccc(F)c2)cc1OC (configuration not stated) here?
A: > 30 µM

Q: Which EC50 does the source give for COc1ccc(C2CC(c3ccc(F)cc3)=NN2c2ccccc2)cc1OC (configuration not stated) [UNM-0000305864] here?
A: > 30 µM

Q: With COc1ccc(C2CC(c3ccc(Br)cc3)=NN2c2ccccc2Cl)cc1 (configuration not stated) [UNM-0000305832] as the compound, how does the EC50 read?
A: > 30 µM

Q: How did the EC50 turn out when COc1ccc(-c2cc(-c3ccccc3)nn2-c2ccc(S(N)(=O)=O)cc2)cc1 [4-[5-(4-methoxyphenyl)-3-phenylpyrazol-1-yl]benzenesulfonamide] was run?
A: > 30 µM

Q: With COc1ccc(C2=NN(c3ccc(Cl)c(Cl)c3)C(c3ccc(OC)cc3)C2)cc1 (configuration not stated) [2-(3,4-dichlorophenyl)-3,5-bis(4-methoxyphenyl)-3,4-dihydropyrazole] as the compound, how does the EC50 read?
A: > 30 µM

Q: With Cc1cccc(N2N=C(c3ccccc3)CC2c2ccccc2)c1 (configuration not stated) [UNM-0000305835] as the compound, how does the EC50 read?
A: > 30 µM

Q: For Brc1ccc(N2N=C(c3ccccc3)CC2c2ccccc2)cc1 (configuration not stated), which EC50 is on record?
A: > 30 µM

Q: With NS(=O)(=O)c1ccc(N2N=C(c3ccccc3)CC2c2ccccc2)cc1 (configuration not stated) [4-(3,5-diphenyl-3,4-dihydropyrazol-2-yl)benzenesulfonamide] as the compound, how does the EC50 read?
A: > 30 µM

Q: With COc1ccc(C2CC(c3cccc(Br)c3)=NN2c2ccc(S(N)(=O)=O)cc2)cc1 (configuration not stated) [UNM-0000306113] as the compound, how does the EC50 read?
A: > 30 µM

Q: For COc1ccc(C2CC(c3ccccc3C)=NN2c2ccc(S(N)(=O)=O)cc2)cc1 (configuration not stated) [UNM-0000306152], which EC50 is on record?
A: > 30 µM

Q: Which EC50 does the source give for CN(C)c1ccc(C2C[C-](c3ccccc3)N=[N+]2c2ccc([N+](=O)[O-])cc2)cc1 (configuration not stated) here?
A: > 30 µM

Q: O=C(O)c1ccc(N2N=C(c3ccccc3)CC2c2ccccc2)cc1 (configuration not stated) was tested. Which EC50 did it give?
A: > 30 µM

Q: Which EC50 does the source give for Clc1ccc(N2N=C(c3ccccc3)CC2c2ccccc2)cc1 (configuration not stated) here?
A: > 30 µM

Q: How did the EC50 turn out when COc1ccc(C2CC(C)=NN2c2ccc(S(N)(=O)=O)cc2)cc1 (configuration not stated) [4-[3-(4-methoxyphenyl)-5-methyl-3,4-dihydropyrazol-2-yl]benzenesulfonamide] was run?
A: > 30 µM

Q: For Fc1ccc(C2=NN(c3cccc(Br)c3)C(c3ccccc3)C2)cc1 (configuration not stated) [2-(3-bromophenyl)-5-(4-fluorophenyl)-3-phenyl-3,4-dihydropyrazole], which EC50 is on record?
A: > 30 µM

Q: With CN(C)c1ccc(C2CC(c3ccc(Br)cc3)=NN2c2ccccc2)cc1 (configuration not stated) [UNM-0000305846] as the compound, how does the EC50 read?
A: > 30 µM

Q: With COc1ccc(C2CC(c3cccs3)=NN2c2ccc(S(N)(=O)=O)cc2)cc1 (configuration not stated) [KUC103438N] as the compound, how does the EC50 read?
A: > 30 µM

Q: With COc1ccc(C2CC(c3ccsc3)=NN2c2ccc(S(N)(=O)=O)cc2)cc1 (configuration not stated) [4-[3-(4-methoxyphenyl)-5-thiophen-3-yl-3,4-dihydropyrazol-2-yl]benzenesulfonamide] as the compound, how does the EC50 read?
A: > 30 µM

Q: CCc1ccc(C2=NN(c3ccc(S(N)(=O)=O)cc3)C(c3ccc(F)cc3)C2)cc1 (configuration not stated) was tested. Which EC50 did it give?
A: > 30 µM

Q: For Cc1ccc(C2CC(c3ccccc3)=NN2c2ccc(S(N)(=O)=O)cc2)cc1 (configuration not stated), which EC50 is on record?
A: > 30 µM

Q: COc1ccc(C2CC(c3cccc(C(F)(F)F)c3)=NN2c2ccc(S(N)(=O)=O)cc2)cc1 (configuration not stated) was tested. Which EC50 did it give?
A: > 30 µM

Q: CN(C)c1ccc(C2CC(c3ccc(Cl)cc3)=NN2c2ccccc2)cc1 (configuration not stated) [UNM-0000305847] was tested. Which EC50 did it give?
A: > 30 µM

Q: With Clc1cccc(N2N=C(c3ccccc3)CC2c2ccccc2)c1 (configuration not stated) as the compound, how does the EC50 read?
A: > 30 µM

Q: With CC(=O)Oc1ccc(C2=NN(c3ccccc3)C(c3ccccc3)C2)cc1 (configuration not stated) as the compound, how does the EC50 read?
A: > 30 µM

Q: COc1ccc(C2CC(c3ccccc3)=NN2c2ccc(Cl)c(C(=O)O)c2)cc1OC (configuration not stated) [2-chloro-5-[3-(3,4-dimethoxyphenyl)-5-phenyl-3,4-dihydropyrazol-2-yl]benzoic acid] was tested. Which EC50 did it give?
A: > 30 µM

Q: How did the EC50 turn out when COc1ccc(C2CC(c3ccccc3)=NN2c2ccc(C(N)=O)cc2)cc1 (configuration not stated) [UNM-0000305870] was run?
A: > 30 µM

Q: How did the EC50 turn out when Cc1ccccc1N1N=C(c2ccccc2)CC1c1ccc(N(C)C)cc1 (configuration not stated) [N,N-dimethyl-4-[2-(2-methylphenyl)-5-phenyl-3,4-dihydropyrazol-3-yl]aniline] was run?
A: > 30 µM

Q: For Cc1onc(-c2ccccc2)c1-c1ccc(S(N)(=O)=O)cc1, which EC50 is on record?
A: > 30 µM

Q: COc1ccc(C2CC(c3cccc(F)c3)=NN2c2ccc(S(N)(=O)=O)cc2)cc1 (configuration not stated) [4-[5-(3-fluorophenyl)-3-(4-methoxyphenyl)-3,4-dihydropyrazol-2-yl]benzenesulfonamide] was tested. Which EC50 did it give?
A: > 30 µM

Q: Which EC50 does the source give for NS(=O)(=O)c1ccc(N2N=C(c3ccccc3)CC2c2ccc(Cl)cc2)cc1 (configuration not stated) [4-[3-(4-chlorophenyl)-5-phenyl-3,4-dihydropyrazol-2-yl]benzenesulfonamide] here?
A: > 30 µM

Q: COc1ccccc1N1N=C(c2ccccc2)CC1c1ccccc1 (configuration not stated) [UNM-0000305855] was tested. Which EC50 did it give?
A: > 30 µM

Q: For COc1ccc(C2CC(c3ccccc3)=NN2c2cccc(S(N)(=O)=O)c2)cc1 (configuration not stated) [3-[3-(4-methoxyphenyl)-5-phenyl-3,4-dihydropyrazol-2-yl]benzenesulfonamide], which EC50 is on record?
A: > 30 µM

Same assay, conditions: inactive by the depositor's call

Q: How did the EC50 turn out when COc1ccc(C2CC(c3ccc(Cl)cc3)=NN2c2ccccc2)cc1OC (configuration not stated) [UNM-0000305858] was run?
A: 0.079 µM

Q: COc1ccc(C2CC(c3ccccc3)=NN2c2ccc(Cl)c(C(=O)O)c2)cc1 (configuration not stated) was tested. Which EC50 did it give?
A: 1.03 µM

Q: NS(=O)(=O)c1ccc(N2N=C(c3ccc(Cl)cc3)CC2c2ccccc2)cc1 (configuration not stated) was tested. Which EC50 did it give?
A: 0.096 µM

Q: Which EC50 does the source give for CN(C)c1ccc(C2CC(c3ccccc3)=NN2c2ccccc2)cc1 (configuration not stated) [4-(2,5-diphenyl-3,4-dihydropyrazol-3-yl)-N,N-dimethylaniline] here?
A: 0.049 µM

Q: With COc1ccc(C2=NN(c3ccccc3)C(c3ccccc3C(F)(F)F)C2)cc1 (configuration not stated) as the compound, how does the EC50 read?
A: 17.7 µM

Q: Which EC50 does the source give for COc1ccc(C2=NN(c3ccccc3F)C(c3ccc(F)cc3)C2)cc1 (configuration not stated) [UNM-0000305860] here?
A: 13.5 µM
